Experimental data as given in patent publication US20240148745A1, “COMPOUNDS FOR USE IN PROGRESSIVE MULTIPLE SCLEROSIS” (FONDAZIONE CENTRO SAN RAFFAELE, priority 2021, published 2024).

Columns and labels:
[1] = system: rat oligodendrocyte progenitor CG4 line; assay: Differentiation assay on rat oligodendrocyte progenitor CG4 line (HCS, mCherry+); format: cell-based; conditions: secondary screen of 49 selected compounds, 1 μM, 5 days
Method in brief: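 Double-reporter CG4 cells (mCherry in mature oligodendrocytes, EGFP in all lineage stages) proliferated 24 h, then given compounds at 1 μM for 5 days of differentiation, ⅔ medium changed at day 3. 9cis-RA as positive control, basal medium and 0.1% DMSO as negative; triplicates imaged by HCS, 35 fields/well.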

[2] = system: human iPS-derived neuroprecursors; assay: Differentiation of human iPS-derived neuroprecursors into MBP+ oligodendrocytes; format: cell-based; conditions: 1 μM in minimal medium, p<0.05
Excerpt: NPC bearing a doxycycline inducible polycistronic construct containing SOX10, OLIG2 and NKX6.2^29 in a human safe harbor (passages 10 to 25) were singularized on day −3 by treatment with Accutase and plated on Matrigel-coated 12-well plates at a density of 100.000 cells per well in N2B27-medium containing equal parts of neurobasal (Invitrogen) and DMEM-F12 medium (Invitrogen) with 1:100 B27 supplement lacking vitamin A (Invitrogen), 1:200 N2 supplement (Invitrogen), 1% penicillin/streptomycin/glutamine (PSG), 3 μM CHIR99021 (Axon Medchem), 150 μM ascorbic acid and 0.5 μM SAG. The next day medium was changed to N2B27-medium containing 1 μg/ml doxycycline. On DO medium was changed to glial-induction medium (GIM) consisting of DMEM-F12 with 1:100 B27 supplement lacking vitamin A, 1:200 N2 supplement, 1% PSG, 1 μM SAG, 10 ng/mL NT3 (Peprotech), 10 ng/mL IGF-I (Peprotech), 200 μM AA (Sigma), 1:1000 Trace Elements B (Corning). For full medium conditions 10 ng/ml T3 was added. On Day 2 medium was changed to glial-differentiation medium (GDM) comprising DMEM-F12 with 1:100 B27 supplement lacking vitamin A, 1:200 N2 supplement, 1% PSG, 100 μM dbCAMP (Sigma), 100 μM AA, 1:1000. For full medium conditions 60 ng/mL T3, Trace Elements B 10 ng/mL, IGF-I, 10 ng/mL and NT3 were added to the culture. GDM was changed every other day. On day 7 cells were detached by treatment with Accutase and re-plated on laminin coated 48-well plates at densities of 10.000-12.000 cells per well. After 24 h cells were treated in minimal medium with either vehicle alone [0.01% (vol/vol) DMSO] as a negative control, 60 ng/mL T3 as a positive control, or with a drug candidate dissolved in DMSO. Medium was changed every other day. On D16 doxycycline was removed from the medium. Cells were fixed on D21 and analyzed via immunocytochemistry.
Immunocytochemistry. Cells were initially fixed with 4% PFA treatment for 20 min, RT. Following three washes with PBS cells were incubated with blocking solution containing 5% normal goat serum (NGS) and 5% FCS (fetal calf serum) in PBS for 30 min at RT to prevent unspecific binding of the antibodies. To detect intracellular antigens cells were permeabilized by adding 0.5% Triton X-100 to the Blocking-solution. Cells treated with Triton X-100 were washed three times with PBS each time for 5 min at RT. Primary antibodies (rat anti-MBP,1:50, Abcam, AB7349) were applied overnight, 4° C., in blocking solution. The next day cells were washed 3 times with PBS at RT, and afterwards incubated with secondary antibodies (AF488 Alexa Fluor anti-rat (goat), 1:500, Jackson/Dianova, #112-545-167) diluted in PBS for 1 h at RT. Secondary antibodies were subsequently removed by washing 3 times with PBS. Afterwards PBS containing a Dapi staining for nuclei was added for 5 minutes and afterwards washed off with PBS. Cells were kept at 4° C. until imaging.
Imaging and evaluation. From each condition (triplicates) 20-30 pictures were taken randomly chosen by the Dapi-signal. Cell numbers were determined by using an ImageJ Macro to count the nuclei whereas MBP positive cells were subsequently counted manually in black and white images.
The effect on oligodendroglial differentiation of 32 compounds (“Front runners”) was tested. Induced pluripotent stem cells in which the transcription factors SOX10, OLIG2, NKX6.2 were inserted in a doxycycline inducible manner into a human safe harbor were differentiated into neural stem cells. Differentiation into oligodendrocytes was induced by addition of doxycycline. Cells were cultured either in a minimal medium (MM) (negative control) or in MM with the different compounds at a concentration of 1 μM. Addition of T3 to the minimal medium served as a positive control.

CC(=O)N1CCN([C@H]2CCN(C(=O)N(C)[C@H](C)c3cc(C(F)(F)F)cc(C(F)(F)F)c3)[C@@H](c3ccc(F)cc3C)C2)CC1 [Casopitant]
CG4 differentiation compared with 9cis-RA positive control [1]: promoting differentiation significantly higher than 9cis-RA positive control
differentiation into MBP+ oligodendrocytes [2]: promote significantly (p<0.05) the differentiation into MBP+ oligodendrocytes

NCCCC[C@H](NC(=O)[C@@H](Cc1cc(Br)c(O)c(Br)c1)NC(=O)N1CCC(N2Cc3ccccc3NC2=O)CC1)C(=O)N1CCN(c2ccncc2)CC1 [Olcegepant]
CG4 differentiation compared with 9cis-RA positive control [1]: promoting differentiation significantly higher than 9cis-RA positive control
differentiation into MBP+ oligodendrocytes [2]: promote significantly (p<0.05) the differentiation into MBP+ oligodendrocytes

O=C(NOC[C@H](O)CO)c1ccc(F)c(F)c1Nc1ccc(I)cc1F [PD-0325901]
CG4 differentiation compared with 9cis-RA positive control [1]: promoting differentiation significantly higher than 9cis-RA positive control
differentiation into MBP+ oligodendrocytes [2]: promote significantly (p<0.05) the differentiation into MBP+ oligodendrocytes

CC1(C)CCC(C)(C)c2cc(NC(=O)c3ccc(C(=O)O)cc3)ccc21 [Tamibarotene]
CG4 differentiation compared with 9cis-RA positive control [1]: promoting differentiation significantly higher than 9cis-RA positive control

O=C(c1ccc(CN2CCOCC2)cc1)N1CCN(C2CC2)CC1 [Bavisant]
CG4 differentiation compared with 9cis-RA positive control [1]: promoting differentiation significantly higher than 9cis-RA positive control
differentiation into MBP+ oligodendrocytes [2]: promote significantly (p<0.05) the differentiation into MBP+ oligodendrocytes

CC(=O)[C@H]1CC[C@H]2[C@@H]3CCC4=CC(=O)CC[C@]4(C)[C@H]3CC[C@]12C [Progesterone]
CG4 differentiation compared with 9cis-RA positive control [1]: promoting differentiation significantly higher than 9cis-RA positive control
differentiation into MBP+ oligodendrocytes [2]: promote significantly (p<0.05) the differentiation into MBP+ oligodendrocytes

C[C@H](Nc1cc(-c2cnn(C)c2)cc(Nc2cnccn2)n1)c1ccc(F)cc1 [NS-018]
CG4 differentiation compared with 9cis-RA positive control [1]: promoting differentiation significantly higher than 9cis-RA positive control
differentiation into MBP+ oligodendrocytes [2]: promote significantly (p<0.05) the differentiation into MBP+ oligodendrocytes

CCOC(=O)[C@@H](N)CCC(=O)N[C@@H](CSCc1ccccc1)C(=O)N[C@@H](C(=O)OCC)c1ccccc1.Cl [Ezatiostat hydrochloride, Ezatiostat Hydrochloride]
CG4 differentiation compared with 9cis-RA positive control [1]: promoting differentiation significantly higher than 9cis-RA positive control
differentiation into MBP+ oligodendrocytes ([2]; Hydrochloride): promote significantly (p<0.05) the differentiation into MBP+ oligodendrocytes
